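Tested at 5 concentrations; 48 h exposure; 96-well plates; endpoints linearly interpolated, else capped at highest concentration. GI50 = concentration required for 50% inhibition of growth.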 Activity calls are given as the source filed them. Rule as the data show it: active = GI50 up to about 1.1 µM and inactive = higher.
Experiments:
Test in all cases: NCI tumour cell line growth inhibition, 48 h
[1] = tested on: M19-MEL
[2] = tested on: LXFL 529
[3] = tested on: DMS-273
[4] = tested on: HOP-18
[5] = tested on: DLD-1
[6] = tested on: DMS-114
[7] = tested on: XF498
[8] = tested on: SNB-78
[9] = tested on: RXF 631

COc1ccc2c(c1OC)C1=C(C2=O)c2cc3c(cc2CCN1)OCO3
GI50 [1]: 42.1 µM (inactive)
GI50 [2]: 33.1 µM (inactive)
GI50 [3]: 24.2 µM (inactive)
GI50 [4]: 52.5 µM (inactive)
GI50 [5]: 42.4 µM (inactive)
GI50 [6]: 22.6 µM (inactive)
GI50 [7]: 40.3 µM (inactive)
GI50 [8]: 89.7 µM (inactive)

O=C(Cc1ccccc1)NN1C(=O)C(Cl)C1c1cccc([N+](=O)[O-])c1 (stereo unspecified)
GI50 [1]: 5.16 µM (inactive)
GI50 [2]: 14.2 µM (inactive)
GI50 [3]: 36.5 µM (inactive)
GI50 [4]: 31.3 µM (inactive)
GI50 [5]: 37.9 µM (inactive)
GI50 [6]: 28.5 µM (inactive)
GI50 [7]: 31.2 µM (inactive)
GI50 [8]: > 71.8 µM (inactive)

N=C(N)NCCCC(Nc1c2ccccc2nc2ccccc12)C(=O)O (stereo unspecified)
GI50 [1]: > 100 µM (inactive)
GI50 [2]: > 100 µM (inactive)
GI50 [3]: > 100 µM (inactive)
GI50 [5]: > 100 µM (inactive)
GI50 [9]: 75.3 µM (inactive)

O=C1C(c2cnc3ccccc3n2)=C(O)c2ccccc21
GI50 [1]: > 100 µM (inactive)
GI50 [2]: > 100 µM (inactive)
GI50 [3]: 0.281 µM (active)
GI50 [6]: > 100 µM (inactive)
GI50 [9]: > 100 µM (inactive)
GI50 [8]: > 100 µM (inactive)

COC12OCCN(C)C1=CC(=O)C1(C)N=NCC12 (stereo unspecified)
GI50 [1]: > 100 µM (inactive)
GI50 [2]: > 100 µM (inactive)
GI50 [3]: > 100 µM (inactive)
GI50 [4]: > 100 µM (inactive)
GI50 [5]: > 100 µM (inactive)
GI50 [6]: > 100 µM (inactive)
GI50 [8]: > 100 µM (inactive)

CC(C)CC(=O)NS(=O)(=O)c1ccccc1
GI50 [1]: > 100 µM (inactive)
GI50 [2]: > 100 µM (inactive)
GI50 [4]: > 100 µM (inactive)
GI50 [5]: > 100 µM (inactive)
GI50 [6]: > 100 µM (inactive)
GI50 [7]: > 100 µM (inactive)
GI50 [9]: > 100 µM (inactive)
GI50 [8]: > 100 µM (inactive)

CCOC(=O)C(C)(c1c(C)[nH]c2ccccc12)c1c(C)[nH]c2ccccc12
GI50 [2]: 51.4 µM (inactive)
GI50 [3]: 14.1 µM (inactive)
GI50 [5]: 23.7 µM (inactive)
GI50 [6]: 15.7 µM (inactive)
GI50 [7]: 21.8 µM (inactive)
GI50 [8]: 17.5 µM (inactive)

CC(O[Si](C)(C)C)C1C=CC(C)n2c(=O)n(-c3ccccc3)c(=O)n21 (stereo unspecified)
GI50 [1]: > 100 µM (inactive)
GI50 [4]: > 100 µM (inactive)
GI50 [5]: > 100 µM (inactive)
GI50 [6]: > 100 µM (inactive)
GI50 [8]: > 100 µM (inactive)

COC1C=CC23c4cc5c(cc4C(O)OC2CN(C)C3C1)OCO5 (stereo unspecified)
GI50 [1]: 1.52 µM (inactive)
GI50 [2]: 1.45 µM (inactive)
GI50 [3]: 1.4 µM (inactive)
GI50 [6]: 1.26 µM (inactive)

CCOc1cc[n+]([C-](C#N)C#N)cc1
GI50 [1]: > 100 µM (inactive)
GI50 [2]: > 100 µM (inactive)
GI50 [3]: > 100 µM (inactive)
GI50 [5]: > 100 µM (inactive)
GI50 [6]: > 100 µM (inactive)
GI50 [7]: > 100 µM (inactive)
GI50 [9]: > 100 µM (inactive)
GI50 [8]: > 100 µM (inactive)

Cc1cccc2c1NC(c1c(C)[nH]c3ccccc13)C2 (stereo unspecified)
GI50 [1]: > 100 µM (inactive)
GI50 [2]: > 100 µM (inactive)
GI50 [4]: > 100 µM (inactive)
GI50 [5]: > 100 µM (inactive)
GI50 [6]: 56.1 µM (inactive)
GI50 [7]: 51.9 µM (inactive)
GI50 [9]: > 100 µM (inactive)

COc1ccc(C2=NN(C(=O)COc3ccc(Cl)cc3)C(O)(c3ccc(Cl)cc3)C2)cc1 (stereo unspecified)
GI50 [2]: > 100 µM (inactive)
GI50 [3]: > 100 µM (inactive)
GI50 [5]: > 100 µM (inactive)
GI50 [7]: > 100 µM (inactive)
GI50 [9]: > 100 µM (inactive)
GI50 [8]: 66.5 µM (inactive)

CCCCc1c2c(nc3c1CCc1cc4cc5c(nc4nc1-3)-c1nc3c(c(CCCC)c1CC5)CCCC3)CCCC2
GI50 [1]: 54 µM (inactive)
GI50 [2]: 18 µM (inactive)
GI50 [3]: 42.2 µM (inactive)
GI50 [5]: 59.8 µM (inactive)
GI50 [6]: 26.8 µM (inactive)
GI50 [8]: > 100 µM (inactive)

CCCC12Cc3c(OC)ccc(OC)c3CC(Cc3c(OC)ccc(OC)c31)C2=O (stereo unspecified)
GI50 [1]: > 100 µM (inactive)
GI50 [2]: 10.2 µM (inactive)
GI50 [3]: > 100 µM (inactive)
GI50 [5]: > 100 µM (inactive)
GI50 [6]: 34.8 µM (inactive)
GI50 [8]: > 100 µM (inactive)

COc1ccc(/C=N/Nc2nc(-c3cc4oc(=O)n(C)c4cc3Cl)cs2)cc1OC
GI50 [1]: 7.8 µM (inactive)
GI50 [2]: 15.3 µM (inactive)
GI50 [3]: 11.9 µM (inactive)
GI50 [4]: > 100 µM (inactive)
GI50 [5]: 10.7 µM (inactive)
GI50 [6]: 5.87 µM (inactive)
GI50 [7]: 10.7 µM (inactive)
GI50 [9]: 21 µM (inactive)
GI50 [8]: 37.2 µM (inactive)

CC(C)(C)C1=CC(=N/N=c2\scc(-c3ccccc3)n2-c2ccccc2)C=C(C(C)(C)C)C1=O
GI50 [1]: > 100 µM (inactive)
GI50 [2]: > 100 µM (inactive)
GI50 [3]: > 100 µM (inactive)
GI50 [4]: > 100 µM (inactive)
GI50 [5]: > 100 µM (inactive)
GI50 [6]: > 100 µM (inactive)
GI50 [7]: > 100 µM (inactive)
GI50 [8]: > 100 µM (inactive)

Cc1ccc(NC(=O)C2C(=O)N(c3ccc(C)c(C)c3)C(=O)/C2=N/O)cc1C (stereo unspecified)
GI50 [2]: > 100 µM (inactive)
GI50 [3]: > 100 µM (inactive)
GI50 [4]: > 100 µM (inactive)
GI50 [5]: > 100 µM (inactive)
GI50 [6]: > 100 µM (inactive)
GI50 [7]: > 100 µM (inactive)
GI50 [9]: > 100 µM (inactive)
GI50 [8]: > 100 µM (inactive)

O=C(NNc1ccccc1)/C(=C/c1ccc2c(c1)OCO2)NC(=O)c1ccccc1
GI50 [2]: > 100 µM (inactive)
GI50 [3]: > 100 µM (inactive)
GI50 [4]: > 100 µM (inactive)
GI50 [5]: > 100 µM (inactive)
GI50 [7]: > 100 µM (inactive)
GI50 [8]: > 100 µM (inactive)

CC(C)(C)C(=O)CC(=O)C(C)(C)C.CC(C)(C)C(=O)CC(=O)C(C)(C)C.[SiH4]
GI50 [1]: 1.86 µM (inactive)
GI50 [2]: 1.56 µM (inactive)
GI50 [3]: 0.446 µM (active)
GI50 [4]: 2.36 µM (inactive)
GI50 [5]: 0.436 µM (active)
GI50 [6]: 0.566 µM (active)
GI50 [7]: 0.519 µM (active)

COc1ccc(-c2cc(=O)c3c(OC)cccc3o2)c(OC)c1OC
GI50 [1]: > 100 µM (inactive)
GI50 [2]: 82.2 µM (inactive)
GI50 [3]: > 100 µM (inactive)
GI50 [5]: 95.1 µM (inactive)
GI50 [6]: > 100 µM (inactive)
GI50 [8]: > 100 µM (inactive)

O=C1Cc2c([nH]c3ccccc23)-c2ccccc2N1 [PAULLONE]
GI50 [1]: 53.1 µM (inactive)
GI50 [2]: 19.1 µM (inactive)
GI50 [3]: 31.1 µM (inactive)
GI50 [4]: > 100 µM (inactive)
GI50 [5]: 33.3 µM (inactive)
GI50 [7]: 31.6 µM (inactive)
GI50 [8]: > 100 µM (inactive)

Source: ChEMBL document CHEMBL1201862, “PubChem BioAssay data set” (2004)
